From paper PMC11558128 (Advanced Science, 2024)
Substitutions are numbered along the chain they refer to. Positions of bridges follow the written chain, without caps; N, C: chain ends. Residues, ends and D or L forms follow the SMILES beside them.

Key:
rKv4.2 D284K = target: T1, rKv4.2 D284K (Rattus norvegicus, UniProt Q63881, D284K); experiment: cell-based; settings: mean ± SEM
T1 construct: expressed in transfected cells; host or cells: HEK293T
T1 sequence (Q63881 1-630 D284K): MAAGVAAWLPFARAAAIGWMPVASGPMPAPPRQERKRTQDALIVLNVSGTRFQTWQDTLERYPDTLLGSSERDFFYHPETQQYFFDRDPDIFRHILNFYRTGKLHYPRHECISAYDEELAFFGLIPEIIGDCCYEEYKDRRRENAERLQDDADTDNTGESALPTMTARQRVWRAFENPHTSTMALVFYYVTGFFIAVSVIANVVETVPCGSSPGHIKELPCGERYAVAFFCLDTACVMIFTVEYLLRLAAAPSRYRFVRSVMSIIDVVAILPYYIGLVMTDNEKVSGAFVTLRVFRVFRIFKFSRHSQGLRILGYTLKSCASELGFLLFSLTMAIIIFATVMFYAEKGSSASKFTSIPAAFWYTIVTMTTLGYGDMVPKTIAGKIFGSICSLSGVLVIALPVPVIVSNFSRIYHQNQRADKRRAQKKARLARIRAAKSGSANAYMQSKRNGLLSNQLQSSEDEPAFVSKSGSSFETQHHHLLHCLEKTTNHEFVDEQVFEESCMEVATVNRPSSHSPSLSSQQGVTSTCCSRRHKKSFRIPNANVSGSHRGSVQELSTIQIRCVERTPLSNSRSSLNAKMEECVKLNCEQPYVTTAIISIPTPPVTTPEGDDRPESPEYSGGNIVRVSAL

rKv4.2 D281K = target: T2, rKv4.2 D281K (Rattus norvegicus, UniProt Q63881, D281K); experiment: cell-based; settings: mean ± SEM
T2 construct: expressed in transfected cells; host or cells: HEK293T
T2 sequence (Q63881 1-630 D281K): T1 sequence (Q63881 1-630 D284K) with D281K, K284D

rKv4.2 T280A = target: T3, rKv4.2 T280A (Rattus norvegicus, UniProt Q63881, T280A); experiment: cell-based; settings: mean ± SEM
T3 construct: expressed in transfected cells; host or cells: HEK293T
T3 sequence (Q63881 1-630 T280A): T1 sequence (Q63881 1-630 D284K) with T280A, K284D

rKv4.2 V278A = target: T4, rKv4.2 V278A (Rattus norvegicus, UniProt Q63881, V278A); experiment: cell-based; settings: mean ± SEM
T4 construct: expressed in transfected cells; host or cells: HEK293T
T4 sequence (Q63881 1-630 V278A): T1 sequence (Q63881 1-630 D284K) with V278A, K284D

hNav1.7 = target: T5, hNav1.7 (Homo sapiens, UniProt Q15858); experiment: cell-based; settings: whole-cell patch clamp, HEK293T, hNav1.7 with β1 and β2; held at -90 mV, step to 0 mV; mean ± S.E.M., n = 3-7; SEM; read-out: IC50 for hNav1.7
T5 construct: expressed in transfected cells; host or cells: HEK293T

[1] = tested on: other Kv channels (hKv1.1-1.5, rKv2.1, hKv3.1-3.4, mKv4.1, hKv7.2 and hERG); settings: n = 3-4

T5 sequence (O60939 30-215): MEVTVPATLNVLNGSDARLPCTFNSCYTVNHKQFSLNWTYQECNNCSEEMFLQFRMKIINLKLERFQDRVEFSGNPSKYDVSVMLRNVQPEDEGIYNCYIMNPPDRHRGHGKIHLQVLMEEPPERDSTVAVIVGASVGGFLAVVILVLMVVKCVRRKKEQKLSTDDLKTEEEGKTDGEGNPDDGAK
T5 sequence (Q15858 other isoform, or with tags, fused parts or gaps): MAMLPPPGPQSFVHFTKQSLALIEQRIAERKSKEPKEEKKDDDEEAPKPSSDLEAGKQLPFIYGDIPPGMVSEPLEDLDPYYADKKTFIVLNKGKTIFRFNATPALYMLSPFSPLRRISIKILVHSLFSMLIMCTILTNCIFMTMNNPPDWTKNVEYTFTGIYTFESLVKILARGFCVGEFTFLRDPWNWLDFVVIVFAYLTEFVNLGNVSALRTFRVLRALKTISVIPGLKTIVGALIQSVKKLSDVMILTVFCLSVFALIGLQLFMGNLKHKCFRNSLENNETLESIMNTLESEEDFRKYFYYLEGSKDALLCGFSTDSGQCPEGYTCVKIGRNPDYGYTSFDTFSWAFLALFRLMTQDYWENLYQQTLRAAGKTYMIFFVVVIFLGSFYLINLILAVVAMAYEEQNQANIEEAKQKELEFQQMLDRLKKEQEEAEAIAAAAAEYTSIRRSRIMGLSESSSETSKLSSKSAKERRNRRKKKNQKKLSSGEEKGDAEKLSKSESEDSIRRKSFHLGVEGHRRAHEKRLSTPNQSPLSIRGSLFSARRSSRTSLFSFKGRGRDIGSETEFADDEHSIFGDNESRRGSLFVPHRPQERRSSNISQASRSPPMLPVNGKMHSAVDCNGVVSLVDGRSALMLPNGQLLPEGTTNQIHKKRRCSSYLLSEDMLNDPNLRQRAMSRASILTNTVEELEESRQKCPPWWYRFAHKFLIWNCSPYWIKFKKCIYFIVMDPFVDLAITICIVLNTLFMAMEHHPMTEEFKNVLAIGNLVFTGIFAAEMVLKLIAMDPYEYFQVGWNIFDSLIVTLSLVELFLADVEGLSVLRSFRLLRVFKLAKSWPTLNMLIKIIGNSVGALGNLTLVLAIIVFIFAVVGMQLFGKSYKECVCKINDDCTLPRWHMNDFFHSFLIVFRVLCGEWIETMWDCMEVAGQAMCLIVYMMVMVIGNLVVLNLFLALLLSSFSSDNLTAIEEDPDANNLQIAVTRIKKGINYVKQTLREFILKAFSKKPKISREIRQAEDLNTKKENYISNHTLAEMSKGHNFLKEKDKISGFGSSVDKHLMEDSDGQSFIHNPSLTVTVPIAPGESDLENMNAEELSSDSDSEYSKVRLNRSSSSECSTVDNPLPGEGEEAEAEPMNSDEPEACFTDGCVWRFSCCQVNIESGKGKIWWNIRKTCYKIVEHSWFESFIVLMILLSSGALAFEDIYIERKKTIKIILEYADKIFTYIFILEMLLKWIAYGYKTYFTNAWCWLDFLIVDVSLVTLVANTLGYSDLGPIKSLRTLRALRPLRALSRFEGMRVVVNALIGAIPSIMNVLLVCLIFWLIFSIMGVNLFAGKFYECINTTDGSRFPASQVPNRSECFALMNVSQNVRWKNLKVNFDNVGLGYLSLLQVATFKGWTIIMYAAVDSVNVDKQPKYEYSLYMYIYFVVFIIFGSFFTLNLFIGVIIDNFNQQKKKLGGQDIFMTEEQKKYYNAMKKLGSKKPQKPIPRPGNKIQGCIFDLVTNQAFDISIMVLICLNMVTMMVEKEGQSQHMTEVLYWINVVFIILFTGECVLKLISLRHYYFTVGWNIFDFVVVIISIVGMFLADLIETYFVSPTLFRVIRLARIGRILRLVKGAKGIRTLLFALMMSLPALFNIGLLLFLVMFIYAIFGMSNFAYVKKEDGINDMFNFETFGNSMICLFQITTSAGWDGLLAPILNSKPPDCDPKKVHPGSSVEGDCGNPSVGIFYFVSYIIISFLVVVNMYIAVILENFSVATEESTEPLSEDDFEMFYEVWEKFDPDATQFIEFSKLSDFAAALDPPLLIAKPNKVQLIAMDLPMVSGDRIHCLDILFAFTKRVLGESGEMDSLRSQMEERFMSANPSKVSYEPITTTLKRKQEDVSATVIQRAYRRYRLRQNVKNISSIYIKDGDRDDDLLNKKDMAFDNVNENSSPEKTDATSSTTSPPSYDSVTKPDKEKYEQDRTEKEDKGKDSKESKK
T5 sequence (Q07699 19-218, further chain): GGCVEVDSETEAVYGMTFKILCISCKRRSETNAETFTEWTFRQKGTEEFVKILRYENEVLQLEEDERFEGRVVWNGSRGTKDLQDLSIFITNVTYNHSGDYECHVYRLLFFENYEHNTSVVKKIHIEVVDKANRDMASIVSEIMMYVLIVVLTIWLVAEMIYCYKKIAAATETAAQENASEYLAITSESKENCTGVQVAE

Structure (SMILES)	IC50 (rKv4.2 D284K) [µM]	IC50 (rKv4.2 D281K) [nM]	IC50 (rKv4.2 T280A) [nM]	IC50 (rKv4.2 V278A) [nM]	IC50 (hNav1.7) [nM]	IC50 (rKv4.2 D284K; SEM) [µM]	effect on the current traces of other Kv channels ([1]; 1 µM toxin)	inhibition on other Kv channel subtypes ([1]; 10 µM)
CC[C@H](C)[C@H](NC(=O)[C@H](CCC(=O)O)NC(=O)[C@H](Cc1ccc(O)cc1)NC(=O)[C@H](CCCCN)NC(=O)[C@@H]1CSSC[C@@H]2NC(=O)[C@H](CCC(N)=O)NC(=O)[C@H](CC(=O)O)NC(=O)[C@H](CC(N)=O)NC(=O)[C@H](CO)NC(=O)[C@@H]3CCCN3C(=O)[C@H](CC(N)=O)NC(=O)[C@@H]3CSSC[C@H](NC(=O)[C@H](C(C)C)NC(=O)[C@H](CC(C)C)NC(=O)[C@H](CC(N)=O)NC(=O)[C@H](CO)NC(=O)[C@H](CO)NC(=O)[C@H](CCCCN)NC(=O)[C@H](CSSC[C@H](NC(=O)[C@@H](N)CCC(=O)O)C(=O)N[C@@H](CC(C)C)C(=O)NCC(=O)N[C@@H](Cc4ccccc4)C(=O)NCC(=O)N[C@@H](CCCCN)C(=O)NCC(=O)N3)NC2=O)C(=O)N[C@@H](CO)C(=O)N[C@@H](CCCNC(=N)N)C(=O)N[C@@H](CCCCN)C(=O)N[C@@H](Cc2c[nH]cn2)C(=O)N[C@@H](CCCNC(=N)N)C(=O)N[C@@H](Cc2c[nH]c3ccccc23)C(=O)N1)C(N)=O [HNTX-IV]	> 20	191 ± 32	136 ± 21	182 ± 50	243 ± 42.5			
CSCC[C@@H]1NC(=O)CNC(=O)[C@H](CCC(=O)O)NC(=O)[C@@H]2CSSC[C@H](NC(=O)[C@@H](N)Cc3ccc(O)cc3)C(=O)N[C@@H](CCC(N)=O)C(=O)N[C@@H](CCCCN)C(=O)N[C@@H](Cc3c[nH]c4ccccc34)C(=O)N[C@@H](CCSC)C(=O)N[C@@H](Cc3c[nH]c4ccccc34)C(=O)N[C@@H]([C@@H](C)O)C(=O)N[C@H]3CSSC[C@H](NC(=O)[C@H](C(C)C)NC1=O)C(=O)N[C@@H](CCCNC(=N)N)C(=O)N[C@@H](CC(C)C)C(=O)N[C@@H](Cc1c[nH]c4ccccc14)C(=O)N[C@H](C(=O)N[C@@H](CCCCN)C(=O)N[C@@H](CCCCN)C(=O)N[C@@H](CCCCN)C(=O)N[C@@H](CC(C)C)C(=O)N[C@@H](Cc1c[nH]c4ccccc14)C(=O)O)CSSC[C@H](NC(=O)[C@H](CCCCN)NC(=O)[C@H](CCCNC(=N)N)NC(=O)[C@H](CCC(=O)O)NC(=O)[C@H](CO)NC(=O)[C@H](CC(=O)O)NC3=O)C(=O)N2 [ProTx-II]		27 ± 2	89 ± 21	10 ± 2		0.02 ± 0.002		
CC(C)C[C@H](NC(=O)[C@H](Cc1ccc(O)cc1)NC(=O)[C@@H](NC(=O)[C@H](CCCCN)NC(=O)[C@@H]1CSSC[C@@H]2NC(=O)[C@H](CCC(=O)O)NC(=O)[C@H](CC(N)=O)NC(=O)[C@H](CCCCN)NC(=O)CNC(=O)[C@@H]3CCCN3C(=O)[C@H]([C@@H](C)O)NC(=O)[C@@H]3CSSC[C@H](NC(=O)[C@H](C)NC(=O)[C@H](Cc4ccc(O)cc4)NC(=O)[C@H](CC(N)=O)NC(=O)[C@@H]4CCCN4C(=O)[C@H](CSSC[C@H](NC(=O)CN)C(=O)N[C@@H](CCCCN)C(=O)NCC(=O)N[C@@H](Cc4ccccc4)C(=O)NCC(=O)N[C@@H](CC(=O)O)C(=O)N[C@@H](CO)C(=O)N3)NC2=O)C(=O)N[C@@H](CO)C(=O)N[C@@H](CO)C(=O)N[C@@H](CCCCN)C(=O)N[C@@H](Cc2c[nH]cn2)C(=O)N[C@@H](CCCCN)C(=O)N[C@@H](Cc2c[nH]c3ccccc23)C(=O)N1)C(C)C)C(N)=O [HNTX-III] (H-GCKGFGDSCTPGKNECCPNYACSSKHKWCKVYL-NH2; disulfide 2-17, 9-22, 16-29)	> 20	5000 ± 1000	38 ± 14	177 ± 63	207 ± 57.2		no obvious or only minimal effect	
CC[C@H](C)[C@@H]1NC(=O)[C@@H]2CSSC[C@@H]3NC(=O)[C@H](C(C)C)NC(=O)[C@H](CC(C)C)NC(=O)[C@H](CC(N)=O)NC(=O)[C@@H]4CCCN4C(=O)[C@H](CCCNC(=N)N)NC(=O)[C@H](CSSC[C@H](NC(=O)[C@@H](N)CC(=O)O)C(=O)N[C@@H](CC(C)C)C(=O)NCC(=O)N[C@@H](C)C(=O)N[C@@H](Cc4ccccc4)C(=O)N[C@@H](CCCNC(=N)N)C(=O)N[C@@H](CCCCN)C(=O)N2)NC(=O)[C@H](CSSC[C@@H](C(=O)N[C@@H](CCCCN)C(=O)N[C@@H](Cc2ccc(O)cc2)C(=O)N[C@H](C(=O)N[C@@H](Cc2ccccc2)C(N)=O)C(C)C)NC(=O)[C@H](Cc2c[nH]c4ccccc24)NC(=O)[C@H](CCCNC(=N)N)NC(=O)[C@H](Cc2c[nH]cn2)NC(=O)[C@H](C)NC(=O)[C@H](CO)NC(=O)[C@H](CO)NC3=O)NC(=O)[C@H](CCCCN)NC(=O)[C@H](CC(=O)O)NC(=O)[C@H](CC(N)=O)NC(=O)[C@H](CC(=O)O)NC(=O)[C@@H]2CCCN2C1=O [mGpTx1-SA] (H-DCLGAFRKCIPDNDKCCRPNLVCSSAHRWCKYVF-NH2; disulfide 2-17, 9-23, 16-30)					40.3 ± 3.2			low inhibition
